Source: patent US20040254162A1, “Oxazolidinone derivatives as antimicrobials” (priority 2001, published 2004)
Converted amounts (≈) assume the structure as drawn. Values belong to the molecule of their own block, whether it stands above or below them.

Key:
Experiment in all cases: MIC, agar incorporation method
Conditions in all cases: agar incorporation
MRSA 33 = test system: MRSA 33
Strep. pyog. ATCC 19615 = test system: Strep. pyog. ATCC 19615
S. aureus ATCC 25923 = test system: S. aureus ATCC 25923
S. pneum AB 34 = test system: S. pneum AB 34
Ent. faecalis ATCC 29212 = test system: Ent. faecalis ATCC 29212
VRE 6A (Ent. faecium 6A) = test system: VRE 6A (Ent. faecium 6A)
MRSA 15187 = test system: MRSA 15187
Strep. pne. ATCC 6303 = test system: Strep. pne. ATCC 6303

SMILES: CC(=O)NC[C@H]1CN(c2ccc(N3CCN(Cc4ccc([N+](=O)[O-])o4)CC3)c(F)c2)C(=O)O1.O=C(O)CC(O)(CC(=O)O)C(=O)O [Compound No. 17]
MIC MRSA 33 (MRSA 33): 2 µg/mL
MIC S. pyogenes 19615 (Strep. pyog. ATCC 19615): 1 µg/mL
MIC S. aureus 25923 (S. aureus ATCC 25923): 2 µg/mL
MIC S. pneum AB 34 (S. pneum AB 34): 1 µg/mL
MIC E. faecalis 29212 (Ent. faecalis ATCC 29212): 2 µg/mL
MIC VRE 6A (VRE 6A (Ent. faecium 6A)): 4 µg/mL
MIC MRSA 15187 (MRSA 15187): 2 µg/mL
MIC S. pneum 6303 (Strep. pne. ATCC 6303): 2 µg/mL

SMILES: CC(=O)NC[C@H]1CN(c2ccc(N3CCN(Cc4ccc(Cl)s4)CC3)c(F)c2)C(=O)O1 [Compound No. 10, (S)-N[[3-[3-Fluoro-4-[N-1[4-{2-thienyl(5-chloro)methyl}]piperazinyl]phenyl]2-oxo-5-oxazolidinyl]methyl]acetamide]
MIC MRSA 33 (MRSA 33): 4 µg/mL (≈ 8.57 µM)
MIC S. pyogenes 19615 (Strep. pyog. ATCC 19615): 1 µg/mL (≈ 2.14 µM)
MIC S. aureus 25923 (S. aureus ATCC 25923): 8 µg/mL (≈ 17.1 µM)
MIC S. pneum AB 34 (S. pneum AB 34): 8 µg/mL (≈ 17.1 µM)
MIC E. faecalis 29212 (Ent. faecalis ATCC 29212): 8 µg/mL (≈ 17.1 µM)
MIC VRE 6A (VRE 6A (Ent. faecium 6A)): 4 µg/mL (≈ 8.57 µM)
MIC MRSA 15187 (MRSA 15187): 4 µg/mL (≈ 8.57 µM)
MIC S. pneum 6303 (Strep. pne. ATCC 6303): 4 µg/mL (≈ 8.57 µM)

SMILES: CC(=O)NC[C@H]1CN(c2ccc(N3CCN(Cc4ccc(C=NO)o4)CC3)c(F)c2)C(=O)O1 [Compound No. 60, (S)-N-[[3-[3-Fluoro-4-[N-1-[4-(2-furyl-(5-aldoxime)methyl}]piperazinyl]phenyl]-2-oxo-5-oxazolidinyl]methyl]acetamide]
MIC MRSA 33 (MRSA 33): 2 µg/mL (≈ 4.35 µM)
MIC S. pyogenes 19615 (Strep. pyog. ATCC 19615): 4 µg/mL (≈ 8.71 µM)
MIC S. aureus 25923 (S. aureus ATCC 25923): 2 µg/mL (≈ 4.35 µM)
MIC S. pneum AB 34 (S. pneum AB 34): 8 µg/mL (≈ 17.4 µM)
MIC E. faecalis 29212 (Ent. faecalis ATCC 29212): 8 µg/mL (≈ 17.4 µM)
MIC VRE 6A (VRE 6A (Ent. faecium 6A)): 16 µg/mL (≈ 34.8 µM)
MIC MRSA 15187 (MRSA 15187): 2 µg/mL (≈ 4.35 µM)
MIC S. pneum 6303 (Strep. pne. ATCC 6303): 8 µg/mL (≈ 17.4 µM)

SMILES: CC(=O)NC[C@H]1CN(c2ccc(N3CCN(C(=O)c4ccc(CCl)o4)CC3)c(F)c2)C(=O)O1 [Compound No. 05, (S)-N-[[3-Fluoro-4-[N-1[4-(5-chloromethyl-2-furoyl)piperazinyl]phenyl]-2-oxo-5-oxazolidinyl]methyl]acetamide]
MIC MRSA 33 (MRSA 33): 4 µg/mL (≈ 8.35 µM)
MIC S. pyogenes 19615 (Strep. pyog. ATCC 19615): 4 µg/mL (≈ 8.35 µM)
MIC S. aureus 25923 (S. aureus ATCC 25923): 16 µg/mL (≈ 33.4 µM)
MIC S. pneum AB 34 (S. pneum AB 34): 4 µg/mL (≈ 8.35 µM)
MIC E. faecalis 29212 (Ent. faecalis ATCC 29212): 8 µg/mL (≈ 16.7 µM)
MIC VRE 6A (VRE 6A (Ent. faecium 6A)): 8 µg/mL (≈ 16.7 µM)
MIC MRSA 15187 (MRSA 15187): 4 µg/mL (≈ 8.35 µM)
MIC S. pneum 6303 (Strep. pne. ATCC 6303): 4 µg/mL (≈ 8.35 µM)

Next, values leading:

MIC MRSA 33 (MRSA 33): 4 µg/mL (≈ 7.47 µM)
MIC S. pyogenes 19615 (Strep. pyog. ATCC 19615): 0.5 µg/mL (≈ 0.934 µM)
MIC S. aureus 25923 (S. aureus ATCC 25923): 4 µg/mL (≈ 7.47 µM)
MIC S. pneum AB 34 (S. pneum AB 34): 4 µg/mL (≈ 7.47 µM)
MIC E. faecalis 29212 (Ent. faecalis ATCC 29212): 4 µg/mL (≈ 7.47 µM)
MIC VRE 6A (VRE 6A (Ent. faecium 6A)): 4 µg/mL (≈ 7.47 µM)
MIC MRSA 15187 (MRSA 15187): 4 µg/mL (≈ 7.47 µM)
MIC S. pneum 6303 (Strep. pne. ATCC 6303): 8 µg/mL (≈ 14.9 µM)
SMILES: CC(=O)NC[C@H]1CN(c2ccc(N3C[C@@H]4[C@H](C3)[C@H]4N(C)C(=O)c3ccc(Br)o3)c(F)c2)C(=O)O1 [Compound No. 33, (S)-N-[[3-[3-Fluoro[4-[3-(1α,5α,6α)-6-[N-(5-bromo-2-furoyl)-N-methyl]amino]-3-azabicyclo-[3.1.0.]hexane]phenyl]-2-oxo-5-oxazolidinyl]methyl]acetamide]

MIC MRSA 33 (MRSA 33): 4 µg/mL (≈ 8.5 µM)
MIC S. pyogenes 19615 (Strep. pyog. ATCC 19615): 0.25 µg/mL (≈ 0.531 µM)
MIC S. aureus 25923 (S. aureus ATCC 25923): 8 µg/mL (≈ 17 µM)
MIC S. pneum AB 34 (S. pneum AB 34): 4 µg/mL (≈ 8.5 µM)
MIC E. faecalis 29212 (Ent. faecalis ATCC 29212): 8 µg/mL (≈ 17 µM)
MIC VRE 6A (VRE 6A (Ent. faecium 6A)): 8 µg/mL (≈ 17 µM)
MIC MRSA 15187 (MRSA 15187): 4 µg/mL (≈ 8.5 µM)
MIC S. pneum 6303 (Strep. pne. ATCC 6303): 4 µg/mL (≈ 8.5 µM)
SMILES: CC(=O)NC[C@H]1CN(c2ccc(N3CC4C(C3)C4N(C)Cc3ccc(C=O)o3)c(F)c2)C(=O)O1 (stereo partly drawn) [Compound No. 72, (S)-N-[[3-[3-Fluoro[4-[3-(1α,5α,6α)-6-[N-(5-formyl-2-furylmethyl)-N-methyl]-amino]-3-azabicyclo-[3.1.0]hexane]phenyl]-2-oxo-5-oxazolidinyl]methyl]acetamide]

MIC MRSA 33 (MRSA 33): 8 µg/mL (≈ 16.9 µM)
MIC S. pyogenes 19615 (Strep. pyog. ATCC 19615): 1 µg/mL (≈ 2.12 µM)
MIC S. aureus 25923 (S. aureus ATCC 25923): 8 µg/mL (≈ 16.9 µM)
MIC S. pneum AB 34 (S. pneum AB 34): 8 µg/mL (≈ 16.9 µM)
MIC E. faecalis 29212 (Ent. faecalis ATCC 29212): 8 µg/mL (≈ 16.9 µM)
MIC VRE 6A (VRE 6A (Ent. faecium 6A)): 8 µg/mL (≈ 16.9 µM)
MIC MRSA 15187 (MRSA 15187): 8 µg/mL (≈ 16.9 µM)
MIC S. pneum 6303 (Strep. pne. ATCC 6303): 4 µg/mL (≈ 8.46 µM)
SMILES: CC(=O)NC[C@H]1CN(c2ccc(N3CC4C(C3)C4N(C)C(=O)c3ccsc3)c(F)c2)C(=O)O1 (stereo partly drawn) [Compound No. 73, (S)-N-[[3-[3-Fluoro[4-[3-(1α,5α,6α)-6-[N-(3-thienoyl)-N-methyl]amino]-3-aza-bicyclo[3.1.0]hexane]phenyl]-2-oxo-5-oxazolidinyl]methyl]acetamide]

MIC MRSA 33 (MRSA 33): 8 µg/mL (≈ 17.5 µM)
MIC S. pyogenes 19615 (Strep. pyog. ATCC 19615): 1 µg/mL (≈ 2.19 µM)
MIC S. aureus 25923 (S. aureus ATCC 25923): 8 µg/mL (≈ 17.5 µM)
MIC S. pneum AB 34 (S. pneum AB 34): 4 µg/mL (≈ 8.76 µM)
MIC E. faecalis 29212 (Ent. faecalis ATCC 29212): 8 µg/mL (≈ 17.5 µM)
MIC VRE 6A (VRE 6A (Ent. faecium 6A)): 8 µg/mL (≈ 17.5 µM)
MIC MRSA 15187 (MRSA 15187): 8 µg/mL (≈ 17.5 µM)
MIC S. pneum 6303 (Strep. pne. ATCC 6303): 4 µg/mL (≈ 8.76 µM)
SMILES: CC(=O)NC[C@H]1CN(c2ccc(N3CC4C(C3)C4N(C)C(=O)c3ccoc3)c(F)c2)C(=O)O1 (stereo partly drawn) [Compound No. 32, (S)-N-[[3-[3-Fluoro[4-[3-(1α,5α,6α)-6-[N-(3-furoyl)-N-methyl]amino]-3-azabicyclo-[3.1.0]hexane]phenyl]-2-oxo-5-oxazolidinyl]methyl]acetamide]
